Read-outs that look alike come from different tables or passages of the source.
How the values were obtained:
[1] = tested on: Wnt activity (Wnt-responsive SP5 promoter luciferase reporter in SW480 cells); assay: Wnt activity reporter assay: SW480 cells with SP5 promoter-driven firefly luciferase; type: cell-based; settings: 24 h after compound addition, read-out: Wnt inhibition
Excerpt: The above synthesized compounds were screened using the assay procedure for Wnt activity described below.
Reporter cell lines were generated by stably transducing cells of cancer cell lines (e.g., colon cancer) with a lentiviral construct that include a Wnt-responsive promoter driving expression of the firefly luciferase gene.
Lentiviral constructs were made in which the SP5 promoter, a promoter having eight TCF/LEF binding sites derived from the SP5 promoter, was linked upstream of the firefly luciferase gene. The lentiviral constructs included a hygromycin resistance gene as a selectable marker. The SP5 promoter construct was used to transduce SW480 cells, a colon cancer cell line having a mutated APC gene that generates a truncated APC protein, leading to de-regulated accumulation of β-catenin.
Cultured SW480 cells bearing a reporter construct were distributed at approximately 10,000 cells per well into 384 well multiwell plates. Compounds were then added to the wells in half-log dilutions using a three micromolar top concentration. A series of control wells for each cell type received only buffer and compound solvent. Twenty-four hours after the addition of compound, reporter activity for luciferases was assayed, for example, by addition of the BrightGlo luminescence reagent (Promega) and the Victor3 plate reader (Perkin Elmer). Readings were normalized to DMSO only treated cells, and normalized activities were then used for the IC50 calculations.

DYRK1A = DYRK1A (Homo sapiens (Human), UniProt Q13627); assay: DYRK1A activity Tau assay: pSer396 Tau in SH-SY5Y cells by ELISA / western blot; type: cell-based; settings: overnight (16-18 h) exposure

Molecule | IC50 ([1]; Homo sapiens) [nM] | EC50 (DYRK1A) [nM] | IC50 [1] [nM]
CN1CCC(NC(=O)c2n[nH]c3ccc(-c4ccccc4F)cc23)CC1 [Compound 16, 5-(2-Fluorophenyl)-N-(1-methylpiperidin-4-yl)-1H-indazole-3-carboxamide] | 14600 | 335 | 
N[C@H]1CC[C@@H](NC(=O)c2n[nH]c3ccc(-c4cccnc4)cc23)CC1 [Compound 1285, N-((1s,4s)-4-Aminocyclohexyl)-5-(pyridin-3-yl)-1H-indazole-3-carboxamide] | > 10000 | 35 | 
O=C(NC1CCC(F)(F)CC1)c1n[nH]c2ccc(-c3cccnc3)cc12 [Compound 1283, N-(4,4-Difluorocyclohexyl)-5-(pyridin-3-yl)-1H-indazole-3-carboxamide] | 1300 | 2 | 
CC(C)(C)N1CCC(NC(=O)c2n[nH]c3ccc(-c4cccnc4)cc23)CC1 [Compound 291, N-(1-(tert-Butyl)piperidin-4-yl)-5-(pyridin-3-yl)-1H-indazole-3-carboxamide] | 1010 | 21 | 
O=C(Nc1cccnc1)c1n[nH]c2ccc(-c3cccc(F)c3F)cc12 [Compound 96, 5-(2,3-Difluorophenyl)-N-(pyridin-3-yl)-1H-indazole-3-carboxamide] | 4670 | 134 | 
O=C(N[C@@H]1C[C@@H]1c1ccccc1)c1n[nH]c2ccc(-c3cccnc3)cc12 [Compound 38, N-((1R,2R)-2-Phenylcyclopropyl)-5-(pyridin-3-yl)-1H-indazole-3-carboxamide] | 1570 | 4 | 
O=C(NC1CCNCC1)c1n[nH]c2ccc(-c3cccc(F)c3F)cc12 [Compound 254, 5-(2,3-Difluorophenyl)-N-(piperidin-4-yl)-1H-indazole-3-carboxamide] | 7900 | 66 | 
O=C(Nc1ccc(F)cc1)c1n[nH]c2ccc(-c3cncc(F)c3)cc12 [Compound 1341, N-(4-Fluorophenyl)-5-(5-fluoropyridin-3-yl)-1H-indazole-3-carboxamide] | 4800 | 36 | 
5-(5-(Piperidin-1-ylmethyl)pyridin-3-yl)-N-(2-(pyrrolidin-1-yl)pyridin-4-yl)-1H-indazole-3-carboxamide [Compound 100] |  | 2 | 2600
CC(C)CN1CC(NC(=O)c2n[nH]c3ccc(-c4cncc(F)c4)cc23)C1 [Compound 1275, 5-(5-Fluoropyridin-3-yl)-N-(1-isobutylazetidin-3-yl)-1H-indazole-3-carboxamide] | 2700 | 28 | 
O=C(N[C@@H]1C[C@@H]1c1ccccc1)c1n[nH]c2ccc(-c3cncc(CN4CCCCC4)c3)cc12 [Compound 39, N-((1R,2R)-2-Phenylcyclopropyl)-5-(5-(piperidin-1-ylmethyl)pyridin-3-yl)-1H-indazole-3-carboxamide] | 490 | 1 | 
O=C(Nc1ccc(CN2CCCC2)cc1)c1n[nH]c2ccc(-c3cncc(F)c3)cc12 [Compound 1329, 5-(5-Fluoropyridin-3-yl)-N-(4-(pyrrolidin-1-ylmethyl)phenyl)-1H-indazole-3-carboxamide] | 1700 | 1 | 
O=C(NC1(c2ccccc2)CC1)c1n[nH]c2ccc(-c3cncc(CN4CCC(F)(F)C4)c3)cc12 [Compound 35, 5-(5-((3,3-Difluoropyrrolidin-1-yl)methyl)pyridin-3-yl)-N-(1-phenylcyclopropyl)-1H-indazole-3-carboxamide] | 6390 | 85 | 
CCN1CCC(NC(=O)c2n[nH]c3cc(F)c(-c4cncc5ccccc45)cc23)CC1 [Compound 1293, N-(1-Ethylpiperidin-4-yl)-6-fluoro-5-(isoquinolin-4-yl)-1H-indazole-3-carboxamide] | 2130 | 210 | 
CC(C)(C)CN1CCC(NC(=O)c2n[nH]c3ccc(-c4cccnc4)cc23)CC1 [Compound 329, N-(1-Neopentylpiperidin-4-yl)-5-(pyridin-3-yl)-1H-indazole-3-carboxamide] | 4650 | 7 | 
